Assay results from patent publication US20260001914A1, “MACROCYCLIC PEPTIDES TARGETING KRAS” (Merck Sharp & Dohme LLC, priority 2022, published 2026).
*1 amine or outer side, *2 acyl side, *3 side chain or, on linkers, in order; H or OH if unused. Where a SMILES comes first, the peptide text is derived from it. Bridges are numbered along the chain shown (N, C = ends). [ ]: non-standard residue; d: D form. The star is where a group is joined. NMeNva(5-imidazol-1-yl) = CN[C@@H](CCCn1ccnc1)C(=O)O; X59 = O=C([C@H](Cc1ccc(CN2CCCC2)cc1)N[*:1])[*:2]; X22 = CNC(=N)N(C)CCC[C@@H](C(=O)[*:2])N(C)[*:1]; Ala(pyrimidin-5-yl) = N[C@@H](Cc1cncnc1)C(=O)O; Phe(4-CH2NH2) = NCc1ccc(C[C@H](N)C(=O)O)cc1; X33 = O=C([C@H](Cc1ccnc(F)c1F)N[*:1])[*:2]; X27 = Cc1ccc(C[C@H](N[*:1])C(=O)[*:2])cn1; X62 = O=C([C@@H]1CC[C@H](N[*:1])C1)[*:2]; Lys(N3) = [N-]=[N+]=NCCCC[C@H](N)C(=O)O; Nle(5,5-F2) = CC(F)(F)CC[C@H](N)C(=O)O; Phe(4-F) = N[C@@H](Cc1ccc(F)cc1)C(=O)O; 1Nal = N[C@@H](Cc1cccc2ccccc12)C(=O)O; NHCH2CH2SCH2CO = O=C(CSCCN[*:1])[*:2]; Phe(2-F) = N[C@@H](Cc1ccccc1F)C(=O)O; NMe3Pal = CN[C@@H](Cc1cccnc1)C(=O)O; X1 = O=C(C12CC(CN[*:1])(C1)C2)[*:2]; Ala(cPr) = N[C@@H](CC1CC1)C(=O)O; NMeF = CN[C@@H](Cc1ccccc1)C(=O)O; PhLac = O=C(O)[C@@H](O)Cc1ccccc1; 3Pal = N[C@@H](Cc1cccnc1)C(=O)O; 4Pal = N[C@@H](Cc1ccncc1)C(=O)O; d(αMeC) = C[C@@](N)(CS)C(=O)O; Ahp(2) = CCCCC[C@H](N)C(=O)O; Cba = N[C@@H](CC1CCC1)C(=O)O; hLeu = CC(C)CC[C@H](N)C(=O)O; hLys = NCCCCC[C@H](N)C(=O)O; αMeC = C[C@](N)(CS)C(=O)O; NMeA = CN[C@@H](C)C(=O)O; Nle = CCCC[C@H](N)C(=O)O; Pyrrolidide = C1CCN(*)C1; Nva = CCC[C@H](N)C(=O)O

Target: KRAS-G12D protein (Homo sapiens, UniProt P01116, G12D)
Sequence (P01116 1-188 isoform P01116-2 G12D): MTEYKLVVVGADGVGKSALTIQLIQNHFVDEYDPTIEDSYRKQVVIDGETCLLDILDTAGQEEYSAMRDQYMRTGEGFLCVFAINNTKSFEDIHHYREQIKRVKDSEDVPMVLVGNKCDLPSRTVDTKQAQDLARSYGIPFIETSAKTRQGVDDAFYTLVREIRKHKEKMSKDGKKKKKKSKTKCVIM
Assay: SOS-mediated nucleotide exchange assay (BODIPY-GDP / Tb-streptavidin TR-FRET)
Format: biochemical

Structure (SMILES)	EC50 [nM]
CCCC[C@@H]1NC(=O)[C@H](Cc2cccnc2)NC(=O)[C@H](CCCN(C)C(=N)NC)N(C)C(=O)[C@H](Cc2ccccc2)OC(=O)CSC[C@@](C)(C(N)=O)NC(=O)[C@H](Cc2cccnc2)N(C)C(=O)[C@H](CCCC)NC(=O)[C@H](Cc2ccccc2F)NC1=O [compound 396, cyclo(FLac-NMeArg1MeMe-3Pal-Nle-Phe2F-Nle-NMe3Pal-aMeCl-ClAc)] ({CH2CO}-[PhLac][X22][3Pal][Nle][Phe(2-F)][Nle][NMe3Pal][αMeC]-NH2; thioether N-8)	1.8
CCCCC[C@@H]1NC(=O)[C@H](Cc2ccc(OC)cc2)NC(=O)[C@H](CC2CCC2)NC(=O)[C@H](Cc2ccn(C)n2)NC(=O)[C@H](CCCNC(=N)N)NC(=O)[C@H](Cc2ccccc2)NC(=O)CSC[C@@](C)(C(N)=O)NC(=O)[C@H](Cc2ccccc2)N(C)C1=O [compound 362, cyclo(F-R-MePyzAla-cBuA-TyrOMe-Ahp-NMeF-aMeCl-ClAc)]	1810
CCCC[C@@H]1NC(=O)[C@H](Cc2ccc(O)cc2)NC(=O)[C@H](CCC)NC(=O)[C@H](Cc2ccc(O)cc2)NC(=O)[C@H](CCCNC(=N)N)NC(=O)[C@H](Cc2ccccc2)NC(=O)CSCCNC(=O)[C@H](Cc2ccccc2)N(C)C1=O [compound 76, cyclo(F-R-Y-Nva-Y-Nle-NMeF-Cysteamine-ClAc)] (cyclo(FRY[Nva]Y[Nle][NMeF][NHCH2CH2SCH2CO]))	5310
CCCC[C@@H]1NC(=O)[C@H](CCCCN=[N+]=[N-])NC(=O)[C@H](CCCNC(=N)N)NC(=O)[C@H](Cc2ccc(F)cc2)NC(=O)CSCCNC(=O)[C@H](Cc2ccccc2)N(C)C(=O)[C@H](CCCC)NC(=O)[C@H](Cc2ccc(O)cc2)NC1=O [compound 89, cyclo(Phe4F-R-LysN3-Nle-Y-Nle-NMeF-Cysteamine-ClAc)] (cyclo([Lys(N3)][Nle]Y[Nle][NMeF][NHCH2CH2SCH2CO][Phe(4-F)]R))	3530
CCCC[C@@H]1NC(=O)[C@H](Cc2cccnc2)NC(=O)[C@H](C)N(C)C(=O)[C@H](Cc2ccc(C)nc2)NC(=O)C23CC(CNC(=O)[C@H](Cc4cccnc4)N(C)C(=O)[C@H](CCCC)NC(=O)[C@H](Cc4ccccc4F)NC1=O)(C2)C3 [compound 164, cyclo(4Me3Pal-NMeA-3Pal-Nle-Phe2F-Nle-NMe3Pal-amBCP)] (cyclo([3Pal][Nle][Phe(2-F)][Nle][NMe3Pal][X1][X27][NMeA]))	2890
CC(C)CC[C@@H]1NC(=O)[C@H](Cc2ccnc(F)c2F)NC(=O)[C@H](CC2CC2)NC(=O)[C@H](Cc2cncnc2)NC(=O)[C@H](C)N(C)C(=O)[C@H](Cc2ccccc2)OC(=O)C23CC(CNC(=O)[C@H](Cc4ccccc4)N(C)C1=O)(C2)C3 [compound 293, cyclo(FLac-NMeA-PyrimAla-cPrA-4Pal23F2-hL-NMeF-amBCP)] (cyclo([Ala(cPr)][X33][hLeu][NMeF][X1][PhLac][NMeA][Ala(pyrimidin-5-yl)]))	259
C[C@H]1C(=O)N[C@@H](Cc2cccnc2)C(=O)N[C@@H](CC2CC2)C(=O)N[C@@H](Cc2ccccc2F)C(=O)N[C@@H](CCC(C)(F)F)C(=O)N(C)[C@@H](Cc2ccccc2)C(=O)NCC23CC(C2)(C3)C(=O)O[C@@H](Cc2ccccc2)C(=O)N1C [compound 289, cyclo(FLac-NMeA-3Pal-cPrA-Phe2F-Nle3F2-NMeF-amBCP)] (cyclo([3Pal][Ala(cPr)][Phe(2-F)][Nle(5,5-F2)][NMeF][X1][PhLac][NMeA]))	9
CCCC[C@@H]1NC(=O)[C@H](Cc2ccc(CN3CCCC3)cc2)NC(=O)[C@H](CCCn2ccnc2)N(C)C(=O)[C@H](Cc2ccccc2)NC(=O)C23CC(CNC(=O)[C@H](Cc4cccnc4)N(C)C(=O)[C@H](CCCC)NC(=O)[C@H](Cc4ccccc4F)NC1=O)(C2)C3 [compound 263, cyclo(F-NMeNvaImid-Phe4cPyrr-Nle-Phe2F-Nle-NMe3Pal-amBCP)] (cyclo(F[NMeNva(5-imidazol-1-yl)][X59][Nle][Phe(2-F)][Nle][NMe3Pal][X1]))	42.1
CC(C)C[C@@H]1NC(=O)[C@H](Cc2ccc(O)cc2)NC(=O)[C@H](CCCNC(=N)N)NC(=O)[C@H](Cc2ccccc2)NC(=O)CSC[C@@H](C(N)=O)NC(=O)[C@H](Cc2ccccc2)N(C)C(=O)[C@H](CCCCCN)NC(=O)[C@H](Cc2ccc(O)cc2)NC1=O [compound 13, cyclo(F-R-Y-L-Y-hK-NMcF-Cl-ClAc)] ({CH2CO}-FRYLY[hLys][NMeF]C-NH2; thioether N-8)	5630
CCCCC[C@@H]1NC(=O)[C@H](CC(=O)N2CCCC2)NC(=O)[C@H](CC2CCC2)NC(=O)[C@H](Cc2cccnc2)NC(=O)[C@H](CCCNC(=N)N)NC(=O)[C@H](Cc2ccccc2)NC(=O)CSC[C@@](C)(C(N)=O)NC(=O)[C@H](Cc2ccccc2)N(C)C1=O [compound 373, cyclo(F-R~3Pal-cBuA-PyD-Ahp-NMeF-aMeCl-ClAc)] ({CH2CO}-FR[3Pal][Cba]D(Pyrrolidide)[Ahp(2)][NMeF][αMeC]-NH2; thioether N-8)	1970
CCCC[C@@H]1NC(=O)[C@H](Cc2cccnc2)NC(=O)[C@H](CCCNC(=N)N)NC(=O)[C@H](Cc2ccccc2)NC(=O)[C@@H]2CC[C@@H](C2)NC(=O)[C@H](Cc2ccccc2)N(C)C(=O)[C@H](CCCC)NC(=O)[C@H](Cc2ccc(OC)cc2)NC1=O [compound 203, cyclo(F-R-3Pal-Nle-TyrOMe-Nle-NMeF-bhcLeu)] (cyclo(FR[3Pal][Nle]Y(Me)[Nle][NMeF][X62]))	193
CCCCC[C@@H]1NC(=O)[C@H](Cc2ccc(OC)cc2)NC(=O)[C@H](CC2CCC2)NC(=O)[C@H](Cc2cccnc2)NC(=O)[C@H](CCCNC(=N)N)NC(=O)[C@H](Cc2ccccc2F)NC(=O)CSC[C@@](C)(C(N)=O)NC(=O)[C@H](Cc2ccccc2)N(C)C1=O [compound 370, cyclo(Phe2F-R-3Pal-cBuA-TyrOMe-Ahp-NMeF-aMeCl-ClAc)]	14.9
CCCC[C@@H]1NC(=O)[C@H](Cc2ccncc2)NC(=O)[C@H](CCCNC(=N)N)NC(=O)[C@H](Cc2cccc3ccccc23)NC(=O)CSC[C@H](C(=O)O)NC(=O)[C@H](Cc2ccccc2)N(C)C(=O)[C@H](CCC)NC(=O)[C@H](Cc2ccc(O)cc2)NC1=O [compound 140, cyclo(INal-R-4Pal-Nle-Y-Nva-NMeF-dC-ClAc)] ({CH2CO}-[1Nal]R[4Pal][Nle]Y[Nva][NMeF][dC]-OH; thioether N-8)	1170
CCCC[C@@H]1NC(=O)[C@H](Cc2ccc(CNC(C)=O)cc2)NC(=O)[C@H](CCCNC(=N)N)NC(=O)[C@H](Cc2cccc3ccccc23)NC(=O)CSC[C@](C)(C(=O)O)NC(=O)[C@H](Cc2ccccc2)N(C)C(=O)[C@H](CCCC)NC(=O)[C@H](Cc2ccc(O)cc2)NC1=O [compound 145, cyclo(INal-R-Phe4CH2NHAc-Nle-Y-Nle-NMeF-daMeC-ClAc)] ({CH2CO}-[1Nal]R[Phe(4-CH2NH2)](Ac)[Nle]Y[Nle][NMeF][d(αMeC)]-OH; thioether N-8)	7030
CCCC[C@@H]1NC(=O)[C@H](Cc2ccc(O)cc2)NC(=O)[C@H](CC(C)C)NC(=O)[C@H](Cc2ccc(O)cc2)NC(=O)[C@H](CCCNC(=N)N)NC(=O)[C@H](Cc2cccc3ccccc23)NC(=O)CSC[C@H](C(N)=O)NC(=O)[C@H](Cc2ccccc2)N(C)C1=O [compound 17, cyclo(INal-R-Y-L-Y-Nle-NMeF-dCl-ClAc)] ({CH2CO}-[1Nal]RYLY[Nle][NMeF][dC]-NH2; thioether N-8)	1050
